Results on 5 compounds are retold here after patent US11766068B1, “Method of treating smokeless tobacco” (Altria Client Services LLC, priority 2009, dated 2023).

The structures appear in SMILES notation.

Series [1] concerns HOK-16B cells. Nature of the series: Intracellular ROS generation (DCFH-DA fluorescence) after STE exposure. In kind it is cell-based, human. The conditions noted are these: TROLOX 20 µmol/L, L-ascorbic acid 50 µmol/L or deferoxamine 50 µmol/L, 30 min prior to STE addition; FIG. 1C. On the procedure:
Extracts of smokeless tobacco were prepared in cell growth medium as follows. One gram of reference smokeless tobacco was mixed with 10 ml of cell growth medium and placed on a shaker at 300 rpm and allowed to mix for 2 hours at 37° C. It was then centrifuged at 125 g for 10 minites at 4° C. The extracted supernatant was collected and centrifuged at 14,000 g for 1 hour at 4° C. The supernatant was filtered using a 0.22 µm filter, divided into aliquots, and immediately stored at -80° C. The extracted supernatant yielded a 100 mg/ml smokeless tobacco extract (STE) solution, which was serially diluted to obtain the doses of STE (1-100 mg/ml) used. […]
The intracellular generation of reactive oxygen species (ROS) was measured by using membrane permeable oxidation-sensitive fluorescent dye DCFH-DA. […] Fluorescence measurements were obtained 0 to 3 hours after STE addition, at the indicated concentrations, with a plate reader. Thirty minutes before the measurement of ROS in the plate reader, cells were incubated with DCFH-DA (25 µmol/L) or DMSO vehicle. The medium was then rapidly removed, the cells were washed in ice-cold phosphate-buffered saline and replaced with medium lacking dye, and the plate was placed into the plate reader. Data at each time point are presented corrected for basal fluorescence of vehicle-treated cells at the same time point. […]

Series [2] concerns HOK-16B cells. The series can be described thus: Morphologic assessment of necrotic/apoptotic cell death (Hema 3 staining). The class given is cell-based, human. The conditions noted are these: for protection from STE-induced cell death: TROLOX 20 µmol/L, L-ascorbic acid 50 µmol/L or deferoxamine 50 µmol/L, 30 min prior to STE, FIG. 1D. On the procedure: Extracts of smokeless tobacco were prepared in cell growth medium as follows. One gram of reference smokeless tobacco was mixed with 10 ml of cell growth medium and placed on a shaker at 300 rpm and allowed to mix for 2 hours at 37° C. It was then centrifuged at 125 g for 10 minites at 4° C. The extracted supernatant was collected and centrifuged at 14,000 g for 1 hour at 4° C. The supernatant was filtered using a 0.22 µm filter, divided into aliquots, and immediately stored at -80° C. The extracted supernatant yielded a 100 mg/ml smokeless tobacco extract (STE) solution, which was serially diluted to obtain the doses of STE (1-100 mg/ml) used.
The primary HOK cells, isolated from human oral mucosa, were plated on poly-L-lysine coated plates at a density of 5 × 10^5 cells/well in a 12-well plate and cultured in keratinocyte medium at 37° C. in a humidified atmosphere containing 5% CO2 (v/v). HOK-16B cells were plated at a density of 5 × 10^5 cells/well in a 12-well plate and cultured in keratinocyte growth medium supplemented with 0.1 ng/ml epidermal growth factor, 5 µg/ml insulin, 30 µg/mlgentamicin, and 50 µg/mlamphoterecin at 37° C. in a humidified atmosphere containing 5% CO2 (v/v). The Het-1A cells were attached to plates pre-coated with LHC-9 medium supplemented with 0.01 mg/ml fibronectin, 0.03 mg/ml bovine collagen type I and 0.01 mg/ml bovine serum albumin for 1 hour, at a density of 5 × 10^5 cells/well in a 12-well plate and cultured in LHC-9 medium at 37° C. in a humidified atmosphere containing 5% CO2 (v/v). Unless otherwise indicated, cells were exposed to STE at 24 hours after plating.
Cells were treated with TROLOX (6-hydroxy-2,5,7,8-tetramethylchroman-2-carboxylic acid, a water-soluble derivative of vitamin E) at 20 µmol/L, L-ascorbic acid (50 µmol/L), or deferoxamine (50 µmol/L) 30 min prior to STE addition. Treatment was from a 10 mM stock solution of each agent, and the maximal concentration of vehicle [dimethyl sulfoxide (DMSO)] in culture medium was 0.01% (v/v). When possible, agents were diluted in appropriate cell culture medium (TROLOX, L-ascorbic acid, deferoxamine). Exposure to STE is expressed in terms of the amount of reference MST used to produce the total volume of STE [i.e., 100 mg/ml (w/v)]. The indicated concentrations of STE (1-100 mg/ml) exposure were chosen for these studies because they are within the reference range of previously cited works involving smokeless tobacco exposure (Bagchi et al., “Smokeless tobacco, oxidative stress, apoptosis, and antioxidants in human oral keratinocytes.: Free Radic. Biol. Med. 26, 992-1000 (1999); Mangipudy et al., “Role of nitric oxide in the induction of apoptosis by smokeless tobacco extract.” Mol Cell Biochem. 200, 51-57 (1999); and Petro, “Modulation of IL-12 p35 and p40 promoter activity by smokeless tobacco extract is associated with an effect upon activation of NF-kappaB but not IRF transcription factors.” Int. Immunopharmacol.
Morphologic assessment of viable cells and apoptotic and necrotic cell death was performed as follows. Cells were harvested 3 hours after STE exposure, unless otherwise noted, by treatment with trypsin-EDTA for approximately 5 minutes at 37° C. As some apoptotic cells detached from the culture substratum into the medium, these cells were also collected by centrifugation of the medium at 125 g for 5 minutes. […] Nuclear and total cellular morphology were evaluated. […]

In a further series the test system is cells. Nature of the series: Cell death during cell wounding by washed MST, platform rocker exposure system. In kind it is cell-based. The conditions noted are these: for cell death associated with MST-extract exposure during cell wounding: MST-extract containing 9.5 mM chelator, with washed MST, 30 minutes. The protocol: Cell death was measured immediately following treatment.
We then treated cells for 30 minutes with MST-extract/chelator preparations in the presence of washed MST using the platform exposure system and assessed cell death immediately following treatment.

For series [3] the following is noted: for chelation of free calcium of MST-extract: 9.5 mM chelator in MST-extract. On the procedure: The term “free” with regard to (1) calcium and (2) iron refers to (1) Ca^2+ and (2) Fe^2+ and/or Fe^3+, respectively. Determination of an amount of free iron and/or free calcium in smokeless tobacco can be made by first incubating the smokeless tobacco with any chelators that may be used for an appropriate amount of time (for example, one day), then separating extract by centrifugation with glass beads. […] Then, fifteen grams of Glass Beads (Kimble; 6 MM catalog # 13500-6) can be added to the Vectrospin™ tube containing the tobacco. The tube is preferably centrifuged at 2200 g for 20 minutes to recover tobacco extract. Free calcium and iron can be measured using the respective QuantiChrom™ assay kits (BioAssay Systems, Hayward, CA) according to the manufacturer’s instructions.

A further series deals with Klebsiella pneumoniae. The note with it: cited from earlier work.

Consider `O=C1O[C@H]([C@@H](O)CO)C(O)=C1O` [L-ascorbic acid], for which the “production of ROS induced by STE” value with HOK-16B cells [1] was “completely suppressed”. Moreover, in the series with HOK-16B cells [2], the “protection from STE-induced cell death” value is reported as “can protect against cell death”.

With `O=C(O)CN(CCOCCOCCN(CC(=O)O)CC(=O)O)CC(=O)O` [EGTA, ethylene glycol tetraacetic acid], in the series on cells, the “cell death associated with MST-extract exposure during cell wounding” value is recorded as “reduced cell death”. Further, in the series with cells (free calcium reduced to less than 2 mM), the “cell death with chelator-treated high Ca2+ medium in combination with washed MST” value is “significantly reduced degree of cell death”. The “chelation of free calcium of MST-extract” value in series [3] is on record as “nearly all”. Further, in series [3] (13.5 mM Ca2+ medium), the “free calcium levels in the high Ca2+ medium after chelator addition” value is “less than 2 mM”. In the series with Klebsiella pneumoniae, the “capsule production of Klebsiella pneumoniae” value is “reduced capsule production”.

Take `O=C(O)CN(CCN(CC(=O)O)CC(=O)O)CC(=O)O` [EDTA, ethylenediamine tetraacetic acid]: the “cell death associated with MST-extract exposure during cell wounding” value in the series on cells was “reduced cell death”. Besides, the “chelation of free calcium of MST-extract” value in series [3] was “nearly all”. For the same compound, the “capsule production of Klebsiella pneumoniae” value with Klebsiella pneumoniae is listed as “reduced capsule production”.

Take `[Cl][Fe]([Cl])[Cl]` [FeCl3]: the “percent necrotic cell death after 3 hours” value is reported as 13.4 ± 1.0% in the series on HOK-16B cells [2] (free iron 14 pM in cell culture medium without STE, 0 pM gave 4.9 ± 0.6%); 26.2 ± 3.5% with HOK-16B cells [2] (free iron 31 pM in cell culture medium without STE); 37.9 ± 4.5% with HOK-16B cells [2] (free iron 71 pM in cell culture medium without STE).

Take `Cc1c(C)c2c(c(C)c1O)CCC(C)(C(=O)O)O2` (stereo not drawn) [TROLOX, 6-hydroxy-2,5,7,8-tetramethylchroman-2-carboxylic acid]: in the series with HOK-16B cells [1], the “production of ROS induced by STE” value is listed as “completely suppressed”. In addition, in the series on HOK-16B cells [2], the “protection from STE-induced cell death” value is reported as “can protect against cell death”.
